{"source": "patent US7141661B2", "about": "“Non-steroidal anti-inflammatory drug activated gene with anti-tumorigenic properties” (The United States of America as represented by the …, priority 2000, dated 2006)", "key": {"HCT-116 cells": {"test_system": "HCT-116 cells", "experiment": "Apoptosis and cell cycle by PI staining / FACS in HCT-116 cells", "assay_type": "cell-based, human", "experimental": "To determine whether NAG-1 gene expression is associated with NSAID-induced apoptosis or altered cell cycle kinetics, flow cytometric analysis of the distribution of cells at various stages of the cell cycle was performed. Apoptosis and cell cycle kinetics of INDO-treated HCT-116 cells were measured at different time points. HCT-116 cells were treated with INDO, stained with PI, and analyzed by flow cytometry. Seven thousand five hundred cells were examined by flow cytometry by gating on an area versus width dot plot to exclude cell debris and cell aggregates. Apoptosis is represented by the fold increase in sub-G1 population over 0 hr treatment.\nThe DNA content for NSAIDs, PPARγ ligand, and vehicle treated HCT-116 cells was determined by FACS. Cells were plated at a density of 4×10^5 cells/well in 2 ml of medium in 6 well plates, incubated for 16 h, and then treated with NSAIDs or TGZ in the presence of serum. After treatment, the cells were harvested, washed with PBS, fixed by the slow addition of cold 70% ethanol to a total of 1 ml, and stored overnight at 4° C. The fixed cells were pelleted, washed once with PBS, and stained in 1 ml of 20 μg/ml of propidium iodide (PI), 1 mg/ml RNase in PBS for 20 min. Seven thousand five hundred cells were examined by flow cytometry using Becton Dickinson FACSort equipped with CellQuest software, by gating on an area versus width dot plot to exclude cell debris and cell aggregates. Each cell cycle distribution was analyzed by the McCycle program using one cell cycle parameter. Apoptosis was measured based on the level of sub-diploid DNA contained in cells following treatment with NSAIDs or TGZ using CellQuest software.\nNorthern analysis was performed using NAG-1 and β-actin as probes. The data represent relative expression of NAG-1 mRNA over the control (1.0). Each NSAID was tested at 3 different concentrations and maximally effective concentration used for apoptosis determination. Apoptosis ratio by PI staining was measured by FACS. […] The data represent relative apoptosis ratio over vehicle treatment by PI staining methods. TACS™ Annexin V-FITC kit was also used to confirm apoptosis."}, "NAG-1": {"test_system": "NAG-1", "experiment": "Northern blot analysis of NAG-1 mRNA expression in HCT-116 cells", "assay_type": "cell-based, human", "experimental": "Upon reaching 60–80% confluence in 10 cm plates, the cells were treated at indicated concentrations and times with either different NSAIDs or PPARγ ligands in the absence of serum. Total RNAs were isolated using TRIzol reagent (Life Technologies) according to the manufacturer's protocol. For Northern blot analysis, […] of total RNA was denatured at 55° C. for 15 min and separated in a 1.2% agarose gel containing 2.2 M formaldehyde, and transferred to Hybond-N membrane ([…]). After fixing the membrane by UV, blots were prehybridized in hybridization solution (Rapid-hyb buffer, […]) for 1 hr at 65° C. followed by hybridization with cDNA labeled with [α-^32P]dCTP by random primer extension (DECAprimeII kit, Ambion). The probes used were either full-length NAG-1 fragment or PTGFB clone (generously provided by Dr. Bento-Soar of the University of Iowa). After 4 hr incubation at 65° C., the blots were washed once with 2×SSC/0.1% SDS at RT and twice with 0.1×SSC/0.1% SDS at 65° C. Messenger RNA abundance Was estimated by intensities of the hybridization bands of autoradiographs using Scion Image (Scion). Equivalent loading of RNA samples was confirmed by hybridizing the same blot with a ^32P-labeled b-actin probe which recognizes RNA of approximately 2 kb.\nTo determine whether other NSAIDs increased apoptosis and NAG-1 expression, tests were conducted to determine whether variants of NSAIDs induced NAG-1 gene expression and NSAID-induced apoptosis. Aspirin, ibuprofen, indomethacin, and sulindac sulfide were selected since they are known COX inhibitors. […] HCT-116 cells were treated with different NSAIDs (vehicle, 0.2% DMSO; aspirin, 10 mM; ibuprofen, 1 mM; sodium salicylate, 5 mM; sulindac sulfide, 50 μM; sulindac, 40 μM; acetaminophen, 100 μM) for 24 hr in the absence of serum. Northern analysis was performed using NAG-1 and β-actin as probes. Total RNAs were isolated from NSAID-treated HCT-116 cells after 24 hr treatment and Northern blot was performed using NAG-1 cDNA as a probe (data not shown). […] Each of the doses were as follows: aspirin (1, 5, 10 mM); ibuprofen (100, 500, 1000 μM); salicylate (1, 2.5, 5 mM); sulindac sulfide (1, 10, 50 μM); sulindac (10, 20, 40 μM); acetaminophen (10, 50, 100 μM). After 48 hr treatment with NSAIDs in the presence of serum, cells were harvested and assayed as described in FIG. 1C. Apoptosis detected by PI staining was measured by FACS, as known in the art (FIG. 2A; HCT-116 cells were treated with different NSAIDs (vehicle, 0.2% DMSO; Aspirin, 10 mM; Ibuprofen, 1 mM; Sodium Salicylate, 5 mM; Sulindac Sulfide, 50 μM; Sulindac, 40 μM; Acetaminophen, 100 μM) for 24 hr in the absence of serum. Northern analysis was performed using NAG-1 and β-actin as probes. The open bars represent the relative expression of NAG-1 mRNA over the control (vehicle). The hatched bars represent the relative apoptosis ratio over vehicle treatment by PI staining methods. N=3±S.D.).\nIn the Table below, HCT-116 cells were treated with different NSAIDs (vehicle, 0.2% DMSO) for 24 hr in the absence of serum. Northern analysis was performed using NAG-1 and β-actin as probes. The data represent relative expression of NAG-1 mRNA over the control (1.0). Each NSAID was tested at 3 different concentrations and maximally effective concentration used for apoptosis determination. Apoptosis ratio by PI staining was measured by FACS. After 48 hr treatment with NSAIDs in the presence of serum, cells were harvested and assayed. The data represent relative apoptosis ratio over vehicle treatment by PI staining methods. TACS™ Annexin V-FITC kit was also used to confirm apoptosis."}}}
{"smiles": "COc1ccc2c(c1)c(CC(=O)O)c(C)n2C(=O)c1ccc(Cl)cc1", "note": "[Indomethacin]", "values": [{"measurement": "Increase in apoptosis (sub-G1 population over 0 hr)", "setting": "HCT-116 cells; HCT-116, 36 hr exposure", "result": "~3", "unit": "fold"}, {"measurement": "Apoptosis (PI Staining), relative apoptosis ratio over vehicle", "setting": "HCT-116 cells; HCT-116, 48 hr in presence of serum, maximally effective concentration, FACS", "result": "2.9 ± 0.121"}, {"measurement": "Increase in apoptosis (sub-G1 population over 0 hr)", "setting": "HCT-116 cells; HCT-116, 60 hr exposure", "result": 4.5, "unit": "fold"}, {"measurement": "Earliest time at which apoptosis was observed", "setting": "HCT-116 cells; HCT-116, presence of serum, TGZ 5 μM", "result": 36, "unit": "h"}, {"measurement": "Time point at which G1 arrest was seen", "setting": "HCT-116 cells; HCT-116, TGZ 5 μM", "result": 12, "unit": "h"}, {"measurement": "NAG-1 mRNA expression", "setting": "NAG-1; HCT-116, 100 μM INDO, 24 hr, no serum", "result": "significant increase"}, {"measurement": "NAG-1 Induction (mRNA) Fold", "setting": "NAG-1; HCT-116, 24 hr in absence of serum, relative NAG-1 mRNA over vehicle control (1.0), tested over the concentration range listed", "result": 2.2, "unit": "Fold"}]}
